These results are taken from patent publication US9994862B2, “Rice resistant to HPPD and ACCase inhibiting herbicides” (priority 2011, dated 2018).

Assay in all cases: Mesotrione tolerance trials / herbicide bioassay
Common to all, as to assay type: in vivo, rice

The subject of assay [1] is mutant line ML0831266-03093. As for the experimental part:
After the initial screening of the “mutation population,” the lines with no damage were selected and tested in additional experiments using different rates of the herbicide. In particular, a rate response experiment was conducted in which two different rates of mesotrione were applied pre-emergence, plus an additional foliar application was also applied. […] Progeny of this designated ML0831266-03093 are maintained as a new line carrying resistance to mesotrione herbicide. Seeds are deposited under ATCC PTA-13620. The line (ML0831266-03093) is a source of resistance that is backcrossed into proprietary rice lines or used directly in breeding to develop new proprietary rice lines. The developed lines are a source of herbicide resistance for use in development of new hybrids that offer an alternative mode of action to control weeds in rice. Affording this opportunity to growers is of great value both in providing high yields and in extending the useful life of available weed control technologies. These herbicide resistant traits can be tracked through the simple application of herbicides to growing plants.
(§1) Selection of material inheriting mesotrione tolerance is accomplished by a simple herbicide bioassay. A high rate of mesotrione (at least 420 gm ai/ha) is applied allowing differentiation of heterozygous individuals from homozygous individuals and the tolerance level of the […] line from the inherent tolerance level in the background of some types of rice. In one example a rate of 105 gm ai/ha is applied followed three weeks later by a second application of 630 gm ai/ha. In another example a rate of 420 gm ai/ha is applied in a single application. Yet another example entails applying the herbicide at a rate of 630 gm ai/ha. Herbicide applications are done at the three to four leaf stage of seedling growth. The ideal situation is to have also planted near or within the plants to be selected a set of plants from the original mutant mesotrione tolerant donor line ML0831266-03093, (FIG. 18A) a row of plants of the wild-type of the […] line, P1003 (FIG. 18B), and a row of the line involved as the other parent in the cross (FIG. 18C). These control lines allow easy differentiation for inheritance of the tolerance provided by the ML0831266-03093 mutant line through comparison of the response in the plants to be selected with the control lines. Only plants that live and are relatively healthy will have inherited and be homozygous for the tolerance level provided by the ML0831266-03093 mutant line (FIG. 18A).
(§2) The mutant line is planted in rows or alternatively whole plots are planted and rows of the unmutated line (P1003) and other types of rice or whole plots are planted. Mesotrione is applied pre-emergence or alternatively it is applied post-emergence at the three to four leaf stage of the rice plants. Various rates of mesotrione are applied pre-emergence, pre-emergence followed by post-emergent, or post-emergent with a single or sequential application. Post-emergent applications are applied at the 3-4 leaf stage of the rice.
Seedlings of size 3 to 4 leaves are sprayed with mesotrione herbicide. In one set of 89 plants mesotrione is first applied at 105 gm ai/ha killing 23 plants. Both the mutant line control ML0831266-03093 and the unmutated line P1003 survived the herbicide application while the unmutated line R0146 was killed. […]

For assay [2], the system named is unmutated line R0146.
Text: as §1, §2
(§3) Seedlings of size 3 to 4 leaves are sprayed with mesotrione herbicide. In one set of 89 plants mesotrione is first applied at 105 gm ai/ha killing 23 plants. Both the mutant line control ML0831266-03093 and the unmutated line P1003 survived the herbicide application while the unmutated line R0146 was killed. The surviving plants including some additional plants making a total of 95 are then sprayed with another treatment of mesotrione at a rate of 630 gm ai/ha killing or injuring 67 while 28 survived. (FIG. 23) The surviving ratio of plants to those killed or injured fits a one quarter ratio with a chi squared value of 1.03, well within the expected for a single recessive gene. Another set of F2 individuals of size 78 individuals are sprayed with a single application of mesotrione herbicide at a rate of 420 gm ai/ha resulting in 26 plants surviving also fitting in the expected one quarter ratio for a single recessive gene with a chi square value of 2.88 (Table 2).

Assay [3] has as its system unmutated line P1003.
Text: as §1, §2, §3

The mark [4] stands for this setting: one application at 105 gai/ha followed by a second application of 630 gai/ha.

Entries after “also recorded” stand apart in the source; their conditions may differ.

Consider `CS(=O)(=O)c1ccc(C(=O)C2C(=O)CCCC2=O)c([N+](=O)[O-])c1` [mesotrione], for which, in assay [1] (420 gm ai/ha), the tolerance to mesotrione entry was “tolerant”. Also, in assay [1] (applied rates of mesotrione, FIG. 6), the “tolerance to mesotrione in the presence of common rice weeds” value is recorded as “completely tolerant”. For the same compound, the survival after mesotrione result was “survives” in assay [1] (higher rates); “survived” in assay [1] (low rate 105 gm ai/ha); “killed” in assay [2] (low rate 105 gm ai/ha); “killed or severally injured” in assay [3] (higher rates); “survived” in assay [3] (low rate 105 gm ai/ha). Further, the figures for the “response of the rice to mesotrione” value in assay [1] (setting [4]), in assay [2] (setting [4]) and in assay [3] (setting [4]) were “tolerant; also recorded: little damage”, “completely killed” and “severely injured”, respectively.
